{"source": "patent US4976950A", "about": "“Bone marrow suppressing agents” (The Dow Chemical Company, priority 1989, dated 1990)", "key": {"[1]": {"test": "Biodistribution: % of injected dose in tissue 2 hours after tail vein injection (NaI scintillation counting)", "format": "in vivo, Sprague Dawley rats", "conditions": "rat i.v.", "description": "The rats weighed between 150 and 200 g at the time of injection. After 2 hours the rats were killed by cervical dislocation and dissected. The amount of radioactivity in each tissue was determined by counting in a NaI scintillation counter coupled to a multichannel analyzer. The counts were compared to the counts in 100 μL standards in order to determine the percentage of the dose in each tissue or organ.\n(§1) The rats weighed between 150 and 200 g at the time of injection. After 2 hours the rats were killed by cervical dislocation and dissected. The amount of radioactivity in each tissue was determined by counting in a NaI scintillation counter coupled to a multichannel analyzer. The counts were compared to the counts in 100 μL standards in order to determined the percentage of the dose in each tissue or organ. The numbers represent the average of 5 rats per data point.\nas §1, with “Sprague Dawley rats were allowed to acclimate for five days then injected with 100 μL of the Sm solution described above via a tail vein. The rats” for “The rats”, “order to determine the percentage” for “order to determined the percentage”, “average of 3 rats per” for “average of 5 rats per”\nSprague Dawley rats were allowed to acclimate for five days then injected with 100 μL of the Ho solution described above via a tail vein. The rats weighed between 150 and 200 g at the time of injection. After 2 hours the rats were killed by cervical dislocation and dissected. The amount of radioactivity in each tissue wa determined by counting in a NaI scintillation counter coupled to a multichannel analyzer. The counts were compared to the counts in 100 μL standards in order to determine the percentage of the dose in each tissue or organ. The numbers represent the average of 3 rats per data point.\nSprague Dawley rats were allowed to acclimate for five days then injected with 100 μL of the solutions described above via a tail vein. The rats weighed between 150 and 200 g at the time of injection. After 2 hours the rats were killed by cervical dislocation. Tissues were taken, weighed and the amount of radioactivity determined by counting in a NaI scintillation counter coupled to a multichannel analyzer. The counts in each tissue were compared to the counts in 100 μL standards in order to determine the percentage of the dose in each tissue or organ.\nA Sprague Dawley rat was allowed to acclimate for five days then injected with 175 μL of the solution described above via a tail vein. The rat weighed 155 g at the time of injection. After 2 hours the rat was killed by cervical dislocation and dissected. The amount of radioactivity in each tissue was determined by counting in a NaI scintillation counter coupled to a multichannel analyzer. The counts in each tissue were compared to the counts in […] standards in order to determine the percentage of the dose in each tissue or organ."}, "white blood cell": {"system": "white blood cell", "test": "White blood cell count after injection of radionuclide complex (Unopette Test 5856)", "format": "in vivo, Sprague Dawley rats", "description": "Six Sprague Dawley rats were allowed to acclimate for a period of 6 days then a sample of blood was taken daily from the tail vein and the white blood cell count determined by a standard manual method (Unopette Test 5856 from Becton-Dickinson and Company). On the fourth day, rats numbered 2, 4 and 6 were injected with 0.9 mCi (33.3 MBq) of the above complex. The rat weight at this time ranged from 160-180 g. On days 7, 8, and 9 the white blood cell count was again determined for each rat. Table VI gives the white blood cell count of the injected (2, 4 and 6) rats compared to the control rats (1, 3, and 5). […]"}, "[2]": {"conditions": "0.9 mCi (33.3 MBq) injected Day 4, individual rats 2, 4, 6 (Day 4 counts 28950, 21300, 17600)"}}, "note": "“And” between values parts separate entries of the source, which are not always exact repeats. Identical values can stand only once."}
{"smiles": "O=P([O-])(O)CN1CCN(CP(=O)(O)O)CCN(CP(=O)([O-])O)CCN(CP(=O)(O)O)CC1.[166Ho]", "note": "[Ho-DOTMP]", "values": [{"measurement": "% Injection dose in blood", "setting": "[1]; Table IV, Blood, 0.6 mM Ho, ligand to Ho ratio approximately 1.5, average of 3 rats", "value": 0.07, "unit": "%"}, {"measurement": "% Injection dose in kidney", "setting": "[1]; Table IV, Kidney, 0.6 mM Ho, ligand to Ho ratio approximately 1.5, average of 3 rats", "value": 0.4, "unit": "%"}, {"measurement": "% Injection dose in liver", "setting": "[1]; Table IV, Liver, 0.6 mM Ho, ligand to Ho ratio approximately 1.5, average of 3 rats", "value": 0.07, "unit": "%"}, {"measurement": "% Injected dose in blood", "setting": "[1]; Table V, Blood, ligand of Example 2, cation exchange purified, average of 3 rats", "value": 0.17, "unit": "%"}, {"measurement": "% Injected dose in bone", "setting": "[1]; Table V, Bone, ligand of Example 2, cation exchange purified, average of 3 rats", "value": 64, "unit": "%"}, {"measurement": "% Injected dose in liver", "setting": "[1]; Table V, Liver, ligand of Example 2, cation exchange purified, average of 3 rats", "value": 0.19, "unit": "%"}, {"measurement": "Blood count of treated animals compared to untreated animals", "setting": "white blood cell; 0.9 mCi (33.3 MBq) i.v., rats, days 7, 8 and 9, injected on day 4", "value": "significant drop in the blood count"}, {"measurement": "White blood cell count, Day 7", "setting": "white blood cell; [2]", "value": "5850 and 7400 and 5400"}, {"measurement": "White blood cell count, Day 8", "setting": "white blood cell; [2]", "value": "7950 and 7500 and 4750"}, {"measurement": "White blood cell count, Day 9", "setting": "white blood cell; [2]", "value": "7900 and 7550 and 5350"}]}
